Columns and labels:
Gottingen Minipigs = details: minipig, in vivo
Method: The broad aim of the study was to evaluate the potential dermal toxicity of DMSO when administered topically to four groups of Gottingen Minipigs® for 52 weeks at concentrations of 0, 9%, 45.5% and 90% (w/w) and to evaluate reversibility, progression, or delayed appearance of any observed changes following a 1-month postdose observation period. Two additional groups of Gottingen Minipigs® were dosed topically for 39 weeks at 0% and 90% followed by a 4-month recovery post dose observation period.
Four groups consisting of six animals/sex/group received DMSO at respective dose levels of 0, 9, 45.5, or 90% (w/w) by dermal application three times a day for 364 consecutive days. Following 52 weeks of administration, two animals/sex at 0, 9, 45.5, and 90% dose levels were maintained for a 4-week recovery period. Two additional groups consisting of six animals/sex/group received the control or 90% (w/w) DMSO by dermal application three times a day for 273 consecutive days. Following 39 weeks of administration, two animals/sex at 0 and 90% dose levels were maintained for a 4 month recovery period. […]
Clinical observations were conducted weekly. At the end of the each treatment and recovery period, necropsy examinations were performed, organ weights were recorded, and selected tissues were microscopically examined. […]

Sprague-Dawley rats = details: rat, in vivo
[1] = system: subjects with primary osteoarthritis of the knee; experiment: 12-week randomized controlled trial: safety (adverse events, laboratory parameters, ocular examination); type: in vivo, human
Method: Study Design: Eligible subjects were stratified by the investigator at baseline into stratum 1 (no pain and normal radiological examination in the non-study knee) or stratum 2 (pain and/or abnormal radiological examination in the non-study knee), and then randomized into the trial by receiving the next numbered study kit at that clinic for that stratum. […] Subjects applied 40 drops of solution (approximately 1.2 mL) around the entire circumference of the study knee, without massage, 4 times daily, and took one study tablet daily for up to 12 weeks.
Each subject completed a full efficacy assessment questionnaire after randomization at baseline and at 4, 8 and 12 weeks, or at drop out. […] The POHA asked the question, “Considering all the ways your osteoarthritic (study) knee and its treatment affect you, including both positive and negative effects, how would you rate your overall state of health in the past 48 hours?” Secondary efficacy variables were WOMAC stiffness and patient global assessment (“PGA”) of knee osteoarthritis. The PGA asked the question, “How has the osteoarthritis in your study joint been over the last 48 hours?” The POHA and PGA were scored on a 5-point Likert scale. There was no assessment of the non-treated knee. […] Adverse events were categorized according to Coding Symbols for Thesaurus of Adverse Reaction Terms (“COSTART”). Blood and urine samples were obtained for routine laboratory analysis at baseline, 4 and 12 weeks. Ocular examination (visual acuity test, slit lamp examination and lens assessment) was conducted at the baseline and final visit.
For a missing final score, last observation was carried forward (“LOCF”). Safety analyses were performed on all subjects who received even one dose of either study medication. There was no imputation of missing safety data.

[2] = cited from earlier work
[3] = system: symptomatic primary osteoarthritis of the knee; experiment: 12-week double-blind, double-dummy randomized controlled trial: efficacy (WOMAC, POHA, PGA); type: in vivo, human; details: 12 weeks
Method: This randomized, double-blind, double-dummy, placebo-, vehicle- and active-controlled study was conducted at 40 outpatient centers in Canada and 21 centers in the United States following approval by the appropriate institutional review boards. Eligible subjects, after written informed consent, included men and non-pregnant women aged 40-85 with primary OA of the knee based on (i) standard radiological criteria for OA (Altman, R D, et al., Atlas of individual radiographic features in osteoarthritis. […] J Rheumatol. 1988 December; 15(12):1833-40). All knee films were reviewed by a single radiologist and each compartment was scored (none=1, mild=2, moderate=3, severe=4). Only one knee was treated; where both knees met all entry criteria, the more painful knee (or dominant knee if they scored the same) was selected. Standard exclusion criteria were employed, as described in Roth S H, Shainhouse J Z. Efficacy and safety of a topical diclofenac solution ([…]®) in the treatment of primary osteoarthritis of the knee: a randomized, double-blind, vehicle-controlled clinical trial. Arch Intern Med. 2004; 164:2017-23. Study Design: […] Each study kit contained topical solution and oral tablets for one of the five treatment regimens: […] Topical Diclofenac Solution plus oral diclofenac tablets. […] Concomitant analgesic and anti-inflammatory medications, including over the counter NSAIDs and other analgesics, were prohibited. Continuation of stable treatment with glucosamine, chondroitin, anti-depressants or a proton pump inhibitor (previous 90 days), or low-dose (<325 mg/day) acetylsalicylic acid (previous 30 days) was permitted. Acetaminophen was provided, and permitted (up to four 325-mg caplets per day) except during the 3 days before each efficacy assessment. Other topical products on the knee, including skin emollients, were prohibited. A patient with a gastrointestinal adverse event was allowed to start a proton pump inhibitor. Compliance with the treatment regimen was assessed by weighing the solution bottles and counting study tablets at each clinic visit. […] of randomized placebo controlled clinical trials. J Rheumatol. 2006; 33:1841-4), and patient overall health assessment (“POHA”). The POHA asked the question, “Considering all the ways your osteoarthritic (study) knee and its treatment affect you, including both positive and negative effects, how would you rate your overall state of health in the past 48 hours?” Secondary efficacy variables were WOMAC stiffness and patient global assessment (“PGA”) of knee osteoarthritis. The PGA asked the question, “How has the osteoarthritis in your study joint been over the last 48 hours?” The POHA and PGA were scored on a 5-point Likert scale. There was no assessment of the non-treated knee. […] Adverse events were categorized according to Coding Symbols for Thesaurus of Adverse Reaction Terms (“[…]”). Blood and urine samples were obtained for routine laboratory analysis at baseline, 4 and 12 weeks. Ocular examination (visual acuity test, slit lamp examination and lens assessment) was conducted at the baseline and final visit. All planned analyses were specified a priori. […] Statistical tests were two-sided at the 5% level of significance. All efficacy analyses were by analysis of covariance of the change in score from baseline to landmark final assessment, with baseline score as the covariate. Subjects in both randomization strata were combined for all analyses. Secondary comparisons included topical diclofenac vs. placebo for the secondary variables, and topical diclofenac vs. DMSO vehicle and DMSO vehicle vs. placebo for all variables. A post hoc efficacy analysis compared topical diclofenac vs. oral diclofenac and topical diclofenac+oral diclofenac vs. oral diclofenac. For a missing final score, last observation was carried forward (“LOCF”). Safety analyses were performed on all subjects who received even one dose of either study medication. There was no imputation of missing safety data. […]

[4] = clinical trials, combination compared to oral diclofenac alone
[5] = normal at baseline to above upper limit of normal
[6] = 50 mg of oral diclofenac TID, label of Voltaren Gel
[7] = mean (SD), maximum score 4, mITT

SMILES: C[S+](C)[O-] [DMSO, Dimethyl sulfoxide]
- ophthalmoscopic abnormalities (Gottingen Minipigs): no test article-related ophthalmoscopic abnormalities of any kind
- risk for development of lens opacities or refractive index changes (Gottingen Minipigs): no increased risk for development of lens opacities or refractive index changes
- ophthalmoscopic abnormalities (Sprague-Dawley rats): No test article-related ophthalmoscopic abnormalities

SMILES: O=C(O)Cc1ccccc1Nc1c(Cl)cccc1Cl [ODiclo, diclofenac]
- Abdominal pain ([1]; 12 weeks): 11 (7.3) number (%) of subjects
- Abnormal taste sensation or odor ([1]; 12 weeks): 0 (0.0) number (%) of subjects
- Any adverse event ([1]; 12 weeks): 94 (62.3) number (%) of subjects
- Any digestive system event ([1]; 12 weeks): 36 (23.8) number (%) of subjects
- Any skin/appendages event ([1]; 12 weeks): 11 (7.3) number (%) of subjects
- Contact dermatitis (application site) ([1]; 12 weeks): 1 (0.7) number (%) of subjects
- Contact dermatitis with vesicles (application site) ([1]; 12 weeks): 1 (0.7) number (%) of subjects
- Diarrhea ([1]; 12 weeks): 7 (4.6) number (%) of subjects
- Dry skin (application site) ([1]; 12 weeks): 4 (2.6) number (%) of subjects
- Dyspepsia ([1]; 12 weeks): 6 (4.0) number (%) of subjects
- Nausea ([1]; 12 weeks): 3 (2.0) number (%) of subjects
- Pruritis (application site) ([1]; 12 weeks): 0 (0.0) number (%) of subjects
- Rash ([1]; 12 weeks): 0 (0.0) number (%) of subjects
- Rectal hemorrhage ([1]; 12 weeks): 0 (0.0) number (%) of subjects
- incidence of hypertension ([1]; 12 weeks): 1.3%
- increase in any liver enzyme to three times the upper limit of normal ([1]; 12 weeks): 2 subjects
- Abnormal vision ([1]; 12 weeks, other system event): 4 (2.6) number (%) of subjects
- Accidental injury ([1]; 12 weeks, other system event): 4 (2.6) number (%) of subjects
- Arthralgia ([1]; 12 weeks, other system event): 12 (7.9) number (%) of subjects
- Back pain ([1]; 12 weeks, other system event): 11 (7.3) number (%) of subjects
- Conjunctivitis ([1]; 12 weeks, other system event): 3 (2.0) number (%) of subjects
- Headache ([1]; 12 weeks, other system event): 26 (17.2) number (%) of subjects
- Pain ([1]; 12 weeks, other system event): 8 (5.3) number (%) of subjects
- Respiratory disorder ([1]; 12 weeks, other system event): 8 (5.3) number (%) of subjects
- ALT, mean change ([1]; baseline to final, mean (SD)): 7.2 (25.3) U/L
- AST, mean change ([1]; baseline to final, mean (SD)): 2.5 (10.9) U/L
- Creatinine, mean change ([1]; baseline to final, mean (SD)): 3.1 (11.0) μmol/L
- Hemoglobin, mean change ([1]; baseline to final, mean (SD)): −3.8 (7.1) g/L
- abnormal creatinine [1, 4]: 7%
- abnormal hemoglobin [1, 4]: 9%
- abnormal urea [1, 4]: 12%
- rate of rectal hemorrhage ([1]; clinical trials, combination of topical and oral diclofenac compared to oral diclofenac alone): less than 1%
- ALT, normal to abnormal [1, 5]: 26 (18.8) N (%)
- Creatinine, normal to abnormal [1, 5]: 10 (7.2) N (%)
- Hemoglobin, normal to abnormal ([1]; normal at baseline to below lower limit of normal): 8 (5.8) N (%)
- serious adverse events ([1]; number of events per arm, 12 weeks): 1
- mean AUC0-24 [2, 6]: 3890 ng·h/mL
- mean Cmax [2, 6]: 2270 ng/mL
- predicted level of diclofenac reported with oral diclofenac ([2]; oral): 1500 ng/mL
- PGA (patient global assessment of the study knee), change in score [3, 7]: −1.42 (1.29)
- POHA (patient overall health assessment), change in score [3, 7]: −0.88 (1.31)
- WOMAC Stiffness, change in score ([3]; mean (SD), maximum score 8, mITT): −2.07 (2.02)
- WOMAC Pain, change in score (final score minus baseline score) ([3]; mean (SD), maximum score 20, mITT): −6.4 (4.1)
- WOMAC Physical Function, change in score ([3]; mean (SD), maximum score 68, mITT): −17.5 (14.3)
- improvement in variable score ([3]; oral diclofenac group): 40-48%

Reference: patent publication US20200352886A1 (priority 2009, published 2020)
